Test results: patent US9845319B2, “Amide substituted thiazoles as modulators of RORyt” (Janssen Pharmaceutica NV, priority 2014, dated 2017)

Experiments:
[1] = target: T1, human RORγt ligand binding domain (RORγt LBD) (Homo sapiens, UniProt P51449); assay: RORγt ThermoFluor assay; settings: estimated from thermal shift concentration response
T1 construct: His-tag (N); TurboTEV protease cleavage site (ENLYFQG) (N); made in house; host or cells: E. coli (pHIS1, a modified pET expression vector)
T1 sequence (P51449 with tags, fused parts or gaps): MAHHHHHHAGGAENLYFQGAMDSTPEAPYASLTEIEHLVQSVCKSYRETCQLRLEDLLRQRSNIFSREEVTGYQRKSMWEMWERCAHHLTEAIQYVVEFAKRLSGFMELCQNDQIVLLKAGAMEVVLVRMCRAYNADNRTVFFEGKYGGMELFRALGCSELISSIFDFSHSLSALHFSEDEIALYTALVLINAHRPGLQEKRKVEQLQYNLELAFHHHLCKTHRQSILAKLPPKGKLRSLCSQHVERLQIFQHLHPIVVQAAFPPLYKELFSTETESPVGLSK
Description: This approach is applicable to a wide variety of systems, and rigorous in theoretical interpretation through quantitation of equilibrium binding constants (KD).
The shift in the melting point described as a ΔTm is proportional to the concentration and affinity of the ligand.
Protein and compound solutions are dispensed into black 384-well polypropylene PCR microplates (Abgene) and overlayed with silicone oil (1 μL, Fluka, type DC 200) to prevent evaporation.
Bar-coded assay plates are robotically loaded onto a thermostatically controlled PCR-type thermal block and then heated at a typical ramp-rate of 1° C./min for all experiments.
Fluorescence was measured by continuous illumination with UV light (Hamamatsu LC6) supplied via fiber optic and filtered through a band-pass filter (380-400 nm; >6 OD cutoff). Fluorescence emission of the entire 384-well plate was detected by measuring light intensity using a CCD camera (Sensys, Roper Scientific) filtered to detect 500±25 nm, resulting in simultaneous and independent readings of all 384 wells. Images were collected at each temperature, and the sum of the pixel intensity in a given area of the assay plate was recorded versus temperature. Reference wells contained RORγt without compounds, and the assay conditions were as follows: • 0.065 mg/mL RORγt • 60 μM 1,8-ANS • 100 mM Hepes, pH 7.0 • 10 mM NaCl • 2.5 mM GSH • 0.002% Tween-20
Project compounds were arranged in a pre-dosed mother plate (Greiner Bio-one) wherein compounds are serially diluted in 100% DMSO by 1:2 from a high concentration of 10 mM over 12 columns within a series (column 12 is a reference well containing DMSO, no compound). The compounds were robotically dispensed directly into assay plates (1×=46 nL) using a Hummingbird capillary liquid handling instrument (Digilab). Following compound dispense, protein and dye in buffer was added to achieve the final assay volume of 3 μL, followed by 1 μL of silicone oil.

full-length human RORγt = target: T2, full-length human RORγt (Homo sapiens, UniProt P51449); assay: RORγt (full-length human) Reporter Assay, Conditions A; assay type: cell-based; settings: for IC50: HEK293T cells, GAL4-DBD-RORγt, luciferase, read-out: RORγt (FL) Reporter Assay A, IC50; for inhibition at 6 µM: read-out: RORγt (FL) Reporter Assay A, % inhibition @ 6 μM, 6 μM compound
T2 construct: expressed in transfected cells; host or cells: HEK293T, transiently transfected with pCMV-BD-ROR
T2 sequence (P51449 1-497 isoform P51449-2): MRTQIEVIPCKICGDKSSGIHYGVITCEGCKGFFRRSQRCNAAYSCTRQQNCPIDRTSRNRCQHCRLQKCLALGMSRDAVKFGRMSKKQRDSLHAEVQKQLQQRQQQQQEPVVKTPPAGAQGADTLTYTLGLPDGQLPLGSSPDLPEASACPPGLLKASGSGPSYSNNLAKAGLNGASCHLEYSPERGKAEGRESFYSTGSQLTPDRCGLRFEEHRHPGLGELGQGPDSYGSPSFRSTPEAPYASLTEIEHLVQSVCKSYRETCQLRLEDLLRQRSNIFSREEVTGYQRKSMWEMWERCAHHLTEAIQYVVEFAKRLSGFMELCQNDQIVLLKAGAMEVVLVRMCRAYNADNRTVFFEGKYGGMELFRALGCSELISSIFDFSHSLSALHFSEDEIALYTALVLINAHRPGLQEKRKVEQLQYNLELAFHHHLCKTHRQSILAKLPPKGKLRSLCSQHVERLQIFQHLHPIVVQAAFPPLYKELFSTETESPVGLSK
Description: After overnight (16 to 20 hours) incubation, media were removed and cells were lysed with 20 μL 1× Passive Lysis Buffer (Promega) for 10-15 minutes. Luminescence was measured using a BMG LUMIstar OPTIMA plate reader, after addition of 75 μL/well firefly luciferase buffer, followed by 75 μL/well Renilla luciferase buffer. To calculate the effect of compounds on RORγt activity, firefly values were normalized against values of DMSO only and values of reference compound at saturating concentration, then further normalized against Renilla signals. IC50s were generated by plotting final Renilla normalized data against compound concentration and percent inhibition was calculated against DMSO control.

SMILES	Kd [1] [nM]	IC50 (full-length human RORγt) [nM]	inhibition at 6 µM (full-length human RORγt) [%]
CC[C@H](NS(=O)(=O)c1ccc(-c2sc(-c3nnc(C(C)(C)O)o3)nc2C(=O)N2CCC(F)(F)CC2)c(C(F)F)c1F)C(F)(F)F [Example 6/3, (S)-3-(Difluoromethyl)-4-(4-(4,4-difluoropiperidine-1-carbonyl)-2-(5-(2-hydroxypropan-2-yl)-1,3,4-oxadiazol-2-yl)thiazol-5-yl)-2-fluoro-N-(1,1,1-trifluorobutan-2-yl)benzenesulfonamide]	1.7	27	110
C[C@H](NS(=O)(=O)c1ccc(-c2sc(-c3nnc(C(C)(C)O)o3)nc2C(=O)N2CC(F)(F)C[C@@H]2C)c(C(F)F)c1F)C(F)(F)F [Example 6/4, 4-(4-((S)-4,4-Difluoro-2-methylpyrrolidine-1-carbonyl)-2-(5-(2-hydroxypropan-2-yl)-1,3,4-oxadiazol-2-yl)thiazol-5-yl)-3-(difluoromethyl)-2-fluoro-N—((S)-1,1,1-trifluoropropan-2-yl)benzenesulfonamide]	6.8	82	108
CCCN(C)C(=O)c1nc(-c2nnc(C(C)(C)O)o2)sc1-c1ccc(S(=O)(=O)N[C@@H](C)C(F)(F)F)c(Cl)c1Cl [Example 6/6, (S)-5-(2,3-Dichloro-4-(N-(1,1,1-trifluoropropan-2-yl)sulfamoyl)phenyl)-2-(5-(2-hydroxypropan-2-yl)-1,3,4-oxadiazol-2-yl)-N-methyl-N-propylthiazole-4-carboxamide]	16	72	110
CCCN(CC)C(=O)c1nc(-c2nnc(C(C)(C)O)o2)sc1-c1ccc(S(=O)(=O)N[C@@H](C)C(F)(F)F)c(Cl)c1Cl [Example 6/8, (S)-5-(2,3-Dichloro-4-(N-(1,1,1-trifluoropropan-2-yl)sulfamoyl)phenyl)-N-ethyl-2-(5-(2-hydroxypropan-2-yl)-1,3,4-oxadiazol-2-yl)-N-propylthiazole-4-carboxamide]	4.5	30	108
C[C@H](NC(=O)c1cc(-c2sc(-c3nnc(C(C)(C)O)o3)nc2C(=O)N2CCC(F)CC2)cc(C2(C)CC2)c1)C(F)(F)F [Example 6/10, (S)-3-(4-(4-Fluoropiperidine-1-carbonyl)-2-(5-(2-hydroxypropan-2-yl)-1,3,4-oxadiazol-2-yl)thiazol-5-yl)-5-(1-methylcyclopropyl)-N-(1,1,1-trifluoropropan-2-yl)benzamide]	45	210	101
CC[C@H](NS(=O)(=O)c1ccc(-c2sc(-c3nnc(C(C)(C)O)o3)nc2C(=O)N2CCC(F)(F)CC2)c(Cl)c1)C(F)(F)F [Example 6/12, (S)-3-Chloro-4-(4-(4,4-difluoropiperidine-1-carbonyl)-2-(5-(2-hydroxypropan-2-yl)-1,3,4-oxadiazol-2-yl)thiazol-5-yl)-N-(1,1,1-trifluorobutan-2-yl)benzenesulfonamide]	10	55	103
CC[C@H](NS(=O)(=O)c1ccc(-c2sc(-c3nnc(C(C)(C)O)o3)nc2C(=O)N2CC(F)(F)C2)c(Cl)c1)C(F)(F)F [Example 6/13, (S)-3-Chloro-4-(4-(3,3-difluoroazetidine-1-carbonyl)-2-(5-(2-hydroxypropan-2-yl)-1,3,4-oxadiazol-2-yl)thiazol-5-yl)-N-(1,1,1-trifluorobutan-2-yl)benzenesulfonamide]	590	1100	90
C[C@H](NS(=O)(=O)c1ccc(-c2sc(-c3nnc(C(C)(C)O)o3)nc2C(=O)N2CCC(F)(F)CC2)c(C(F)F)c1Cl)C(F)(F)F [Example 6/14, (S)-2-Chloro-3-(difluoromethyl)-4-(4-(4,4-difluoropiperidine-1-carbonyl)-2-(5-(2-hydroxypropan-2-yl)-1,3,4-oxadiazol-2-yl)thiazol-5-yl)-N-(1,1,1-trifluoropropan-2-yl)benzenesulfonamide]	3.3	73	105
CC[C@H](NS(=O)(=O)c1ccc(-c2sc(-c3nnc(C(C)(C)O)o3)nc2C(=O)N2CCC(F)(F)CC2)c(Cl)c1F)C(F)(F)F [Example 6/15, (S)-3-Chloro-4-(4-(4,4-difluoropiperidine-1-carbonyl)-2-(5-(2-hydroxypropan-2-yl)-1,3,4-oxadiazol-2-yl)thiazol-5-yl)-2-fluoro-N-(1,1,1-trifluorobutan-2-yl)benzenesulfonamide]	0.89	33	107
CC[C@H](NS(=O)(=O)c1ccc(-c2sc(-c3nnc(C(C)(C)O)o3)nc2C(=O)N2CCC(F)(F)CC2)c(F)c1C(F)F)C(F)(F)F [Example 6/16, (S)-2-(Difluoromethyl)-4-(4-(4,4-difluoropiperidine-1-carbonyl)-2-(5-(2-hydroxypropan-2-yl)-1,3,4-oxadiazol-2-yl)thiazol-5-yl)-3-fluoro-N-(1,1,1-trifluorobutan-2-yl)benzenesulfonamide]	0.47	38	104

The next lines start with the values.

Kd [1] [nM]	IC50 (full-length human RORγt) [nM]	inhibition at 6 µM (full-length human RORγt) [%]	SMILES
7.6	38	108	C[C@H](NS(=O)(=O)c1ccc(-c2sc(-c3nnc(C(C)(C)O)o3)nc2C(=O)N2CCC(F)(F)C2)c(Cl)c1Cl)C(F)(F)F [Example 6/2, (S)-2,3-Dichloro-4-(4-(3,3-difluoropyrrolidine-1-carbonyl)-2-(5-(2-hydroxypropan-2-yl)-1,3,4-oxadiazol-2-yl)thiazol-5-yl)-N-(1,1,1-trifluoropropan-2-yl)benzenesulfonamide]
0.6	23	103	C[C@H](NS(=O)(=O)c1ccc(-c2sc(-c3nnc(C(C)(C)O)o3)nc2C(=O)N2CC(F)(F)C[C@@H]2C)c(Cl)c1Cl)C(F)(F)F [Example 6/5, 2,3-Dichloro-4-(4-((S)-4,4-difluoro-2-methylpyrrolidine-1-carbonyl)-2-(5-(2-hydroxypropan-2-yl)-1,3,4-oxadiazol-2-yl)thiazol-5-yl)-N—((S)-1,1,1-trifluoropropan-2-yl)benzenesulfonamide]
1.7	38	113	CCN(C(=O)c1nc(-c2nnc(C(C)(C)O)o2)sc1-c1ccc(S(=O)(=O)N[C@@H](C)C(F)(F)F)c(Cl)c1Cl)C(C)C [Example 6/7, (S)-5-(2,3-Dichloro-4-(N-(1,1,1-trifluoropropan-2-yl)sulfamoyl)phenyl)-N-ethyl-2-(5-(2-hydroxypropan-2-yl)-1,3,4-oxadiazol-2-yl)-N-isopropylthiazole-4-carboxamide]
9.3	69	104	CC[C@H](NS(=O)(=O)c1ccc(-c2sc(-c3nnc(C(C)(C)O)o3)nc2C(=O)N2CCC(F)CC2)c(Cl)c1)C(F)(F)F [Example 6/11, (S)-3-Chloro-4-(4-(4-fluoropiperidine-1-carbonyl)-2-(5-(2-hydroxypropan-2-yl)-1,3,4-oxadiazol-2-yl)thiazol-5-yl)-N-(1,1,1-trifluorobutan-2-yl)benzenesulfonamide]
